Reference: US7375180B2, “Methods and compositions related to IRM compounds and Toll-like receptor 8” (3M Innovative Properties Company, priority 2003, dated 2008)

Target: T1, TLR8 (Homo sapiens, UniProt Q9NR97)
T1 sequence (Q9NR97 27-1041): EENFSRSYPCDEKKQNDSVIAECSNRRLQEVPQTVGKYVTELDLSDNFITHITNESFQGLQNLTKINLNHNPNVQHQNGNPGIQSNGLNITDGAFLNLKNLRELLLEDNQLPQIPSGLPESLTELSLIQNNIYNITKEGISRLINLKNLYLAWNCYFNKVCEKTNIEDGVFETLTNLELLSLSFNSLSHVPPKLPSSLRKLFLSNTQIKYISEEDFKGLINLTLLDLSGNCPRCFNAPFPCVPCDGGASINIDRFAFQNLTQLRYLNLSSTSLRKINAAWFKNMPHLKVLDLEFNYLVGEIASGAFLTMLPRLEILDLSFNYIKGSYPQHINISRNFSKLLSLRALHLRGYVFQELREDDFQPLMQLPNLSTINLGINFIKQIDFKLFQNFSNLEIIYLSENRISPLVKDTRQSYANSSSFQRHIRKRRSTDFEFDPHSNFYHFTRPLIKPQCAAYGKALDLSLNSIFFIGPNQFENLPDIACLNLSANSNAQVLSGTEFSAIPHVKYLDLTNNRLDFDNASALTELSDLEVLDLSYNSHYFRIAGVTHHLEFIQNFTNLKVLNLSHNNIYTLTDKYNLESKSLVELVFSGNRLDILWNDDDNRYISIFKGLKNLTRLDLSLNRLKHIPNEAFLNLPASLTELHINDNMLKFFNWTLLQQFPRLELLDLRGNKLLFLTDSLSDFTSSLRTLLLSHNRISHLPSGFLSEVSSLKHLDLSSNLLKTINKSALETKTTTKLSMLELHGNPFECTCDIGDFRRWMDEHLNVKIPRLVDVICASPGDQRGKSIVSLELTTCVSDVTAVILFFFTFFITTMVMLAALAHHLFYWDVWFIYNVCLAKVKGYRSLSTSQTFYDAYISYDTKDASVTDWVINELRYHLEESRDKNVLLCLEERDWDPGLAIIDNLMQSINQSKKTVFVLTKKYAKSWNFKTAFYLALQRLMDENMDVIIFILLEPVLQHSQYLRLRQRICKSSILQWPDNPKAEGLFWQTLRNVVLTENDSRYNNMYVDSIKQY
Test: Dose dependent TLR8-mediated NF-κB-luciferase response in HEK293 cells transfected with TLR8 (Example 5)
Type: cell-based
Set-up: expressed in transfected cells; host or cells: HEK293 (ATCC CRL-1573), pIRES vector, G-418 selected, co-transfected with NFkB-luc reporter
Description: Twenty-four hours before transfection, HEK293 cells were adhered to a 10 cm dish (Corning 430167, Corning Inc., Corning, N.Y.) at 37° C., 8% CO2. The cells were co-transfected with (1) pIRES (BD Biosciences Clontech, Palo Alto, Calif.) either (a) unmodified (HEK293-vector) or (b) containing human TLR8 (HEK293-TLR8), and (2) NFkB-luc reporter (Stratagene, La Jolla, Calif.) in a 10:1 ratio with Fugene 6 transfection reagent (Roche Diagnostics Corp., Indianapolis, Ind.) following the manufacturer's instructions. The plates were incubated for 24 hours following transfection and then selected in G-418 (400 μg/mL) for two weeks. The G-418-resistant cells containing either the TLR8 or empty vector were expanded in HEK293 media supplemented with G-418 for stimulation experiments.
The transfected cells were plated in white opaque 96 well plates (Costar 3917, Corning Inc., Corning, N.Y.) at a concentration of 5×10^4 cells per well in 100 μL of HEK293 media and incubated at 37° C., 8% CO2 for 4 hours. The cells were stimulated with 1 μL of IRM compounds at 1 mM in DMSO (final IRM concentration of 10 μM) or 1 μL DMSO as a control. The plates were then incubated an additional 16 hours at 37° C., 5% CO2. Luminescence was measured on an LMAX luminometer (Molecular Devices Corp., Sunnyvale, Calif.).
HEK293 cells were transfected as described in Example 1. HEK293 cultures were incubated with IRM compound or a negative control compound (1,5-dihydro-1-(2-methylpropyl)-4H-imidazo[4,5-c]quinolin-4-one, U.S. Pat. No. 4,698,348, Example 71) at concentrations of 0.1 μM, 0.3 μM, 1.0 μM, 3.0 μM, 10 μM, or 30 μM, or a vehicle control. Cultures were otherwise incubated as described in Example 1. Luciferase signals were read in RLU (Relative Luciferase Units) as described in Example 1.

SMILES	Fold increase over vehicle (0.1 μM) [fold]	Fold increase over vehicle (0.3 μM) [fold]	Fold increase over vehicle (1.0 μM) [fold]	Fold increase over vehicle (3.0 μM) [fold]	Fold increase over vehicle (10 μM) [fold]	Fold increase over vehicle (30 μM) [fold]
CCOCc1nc2c(N)nc3cc(-c4cccnc4)ccc3c2n1CC(O)CO (stereo not drawn) [IRM57, 3-[4-amino-2-(ethoxymethyl)-7-(pyridin-3-yl)-1H-imidazo[4,5-c]quinolin-1-yl]propane-1,2-diol]	1.4	1.7	3.1	7.2	10.4	12.5
COCCc1nc2c(N)nc3cc(-c4cncc(CO)c4)ccc3c2n1CC(C)(C)O [IRM49, 1-[4-amino-7-(5-hydroxymethylpyridin-3-yl)-2-(2-methoxyethyl)-1H-imidazo[4,5-c]quinolin-1-yl]-2-methylpropan-2-ol]	1.1	1.4	2.0	3.8	7.0	15.5
CCOCC(=O)NC(C)(C)Cn1c(COCC)nc2c(N)nc3ccccc3c21 [IRM43, N-{2-[4-amino-2-(ethoxymethyl)-1H-imidazo[4,5-c]quinolin-1-yl]-1,1-dimethylethyl}-2-ethoxyacetamide]	2.3	2.3	3.3	2.1	5.6	17.0
CCCCc1nc2c(N)nc3ccccc3c2n1CCCS(C)(=O)=O [IRM40, 2-butyl-1-[3-(methylsulfonyl)propyl]-1H-imidazo[4,5-c]quinolin-4-amine]	1.0	0.9	0.9	1.3	3.1	16.4
CCOCc1nc2c(N)nc3ccccc3c2n1CC(C)(C)NC(=O)NC1CCCC1 [IRM54, 1-[2-(4-amino-2-ethoxymethyl-1H-imidazo[4,5-c]quinolin-1-yl)-1,1-dimethylethyl]-3-cyclopentylurea]	0.9	0.9	1.2	2.6	5.9	9.2
CCc1nc2c(N)nc3cc(-c4ccncc4)ccc3c2n1CC(C)(C)O [IRM59, 1-[4-amino-2-ethyl-7-(pyridin-4-yl)-1H-imidazo[4,5-c]quinolin-1-yl]-2-methylpropan-2-ol]	1.0	1.3	2.1	5.5	9.5	9.8
CCCCc1nc2c(N)nc3ccccc3c2n1CCCNC(=O)N1CCOCC1 [IRM39, N-[3-(4-amino-2-butyl-1H-imidazo[4,5-c]quinolin-1-yl)propyl]morpholine-4-carboxamide]	0.9	1.1	1.2	1.5	6.8	18.0
CCOCc1nc2c(N)nc3c(c2n1NC(C)C)CCCC3 [IRM60, 2-ethoxymethyl-N^1-isopropyl-6,7,8,9-tetrahydro-1H-imidazo[4,5-c]quinoline-1,4-diamine]	1.1	1.0	1.1	2.7	6.2	9.1
COCCc1nc2c(N)nc3c(c2n1CCOCCNC(=O)Nc1ccccc1)CCCC3 [IRM41, N-(2-{2-[4-amino-2-(methoxyethyl)-6,7,8,9-tetrahydro-1H-imidazo[4,5-c]quinolin-1-yl]ethoxy}ethyl)-n′-phenylurea]	0.7	0.9	1.0	3.3	12.7	25.4
CCOCc1nc2c(N)nc3cc(-c4ccc(C(=O)N(C)OC)cc4)ccc3c2n1CC(C)(C)O [IRM61, 4-[4-amino-2-ethoxymethyl-1-(2-hydroxy-2-methylpropyl)-1H-imidazo[4,5-c]quinolin-7-yl]-N-methoxy-N-methylbenzamide]	1.0	1.1	2.9	6.7	10.3	9.4
CCOCc1nc2c(N)nc3cc(-c4ccc(CO)cc4)ccc3c2n1CC1COC(C)(C)O1 (stereo not drawn) [IRM53, 1-[(2,2-dimethyl-1,3-dioxolan-4-yl)methyl]-2-(ethoxymethyl)-7-(4-hydroxymethylphenyl)-1H-imidazo[4,5-c]quinolin-4-amine]	0.9	1.0	1.4	2.0	3.6	7.7
COCCc1nc2c(N)nc3cc(-c4cccc(NS(C)(=O)=O)c4)ccc3c2n1CC(C)(C)O [IRM50, N-{3-[4-amino-1-(2-hydroxy-2-methylpropyl)-2-(methoxyethyl)-1H-imidazo[4,5-c]quinolin-7-yl]phenyl}methanesulfonamide]	1.8	2.1	2.2	4.1	11.7	21.1
